Source: the supplement of paper PMC10307832

Key:
Experiment in all cases: relative viability (nuclei count vs DMSO), 5 days (fraction); higher = more cells survive
Wnt-C59 + Decitabine = compound: CC1=NC=CC(=C1)C2=CC=C(C=C2)CC(=O)NC3=CC=C(C=C3)C4=CN=CC=C4 [Wnt-C59] + Nc1ncn([C@H]2C[C@H](O)[C@@H](CO)O2)c(=O)n1 [Decitabine] (partner 2 µM)
In short: (§1)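 A single step with final 0.05% Triton X-100, 1% formaldehyde and 1 ug/ml Hoechst fixed the cells and stained nuclei 5 days after treatment. Lung cancer cell lines in 1536-well plates had been treated by pin tool the day after seeding with one drug alone or a fixed anchor-drug dose plus five library-drug doses (not always all listed) in √10 steps, and nuclei were counted on 4× images. Relative viability is the ratio of nuclei in treated wells to nuclei in vehicle wells, taken as the median of duplicate plates.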

Wnt-C59 + Alpelisib = compound: CC1=NC=CC(=C1)C2=CC=C(C=C2)CC(=O)NC3=CC=C(C=C3)C4=CN=CC=C4 [Wnt-C59] + Cc1nc(NC(=O)N2CCC[C@H]2C(N)=O)sc1-c1ccnc(C(C)(C)C(F)(F)F)c1 [Alpelisib] (partner 2 µM)
In short: as §1

Wnt-C59 + Trametinib = compound: CC1=NC=CC(=C1)C2=CC=C(C=C2)CC(=O)NC3=CC=C(C=C3)C4=CN=CC=C4 [Wnt-C59] + CC(=O)Nc1cccc(-n2c(=O)n(C3CC3)c(=O)c3c(Nc4ccc(I)cc4F)n(C)c(=O)c(C)c32)c1 [Trametinib] (partner 0.02 µM)
In short: as §1

Wnt-C59 + Pemetrexed = compound: CC1=NC=CC(=C1)C2=CC=C(C=C2)CC(=O)NC3=CC=C(C=C3)C4=CN=CC=C4 [Wnt-C59] + Nc1nc2[nH]cc(CCc3ccc(C(=O)N[C@@H](CCC(=O)O)C(=O)O)cc3)c2c(=O)[nH]1 [Pemetrexed] (partner 0.2 µM)
In short: as §1

| Cell Line | relative viability (Wnt-C59 + Decitabine; first compound 0.001 µM) | relative viability (Wnt-C59 + Decitabine; first compound 0.01 µM) | relative viability (Wnt-C59 + Decitabine; first compound 0.03162 µM) | relative viability (Wnt-C59 + Decitabine; first compound 0.1 µM) | relative viability (Wnt-C59 + Alpelisib; first compound 0.001 µM) | relative viability (Wnt-C59 + Alpelisib; first compound 0.01 µM) | relative viability (Wnt-C59 + Alpelisib; first compound 0.03162 µM) | relative viability (Wnt-C59 + Alpelisib; first compound 0.1 µM) | relative viability (Wnt-C59 + Trametinib; first compound 0.001 µM) | relative viability (Wnt-C59 + Trametinib; first compound 0.01 µM) | relative viability (Wnt-C59 + Trametinib; first compound 0.03162 µM) | relative viability (Wnt-C59 + Trametinib; first compound 0.1 µM) | relative viability (Wnt-C59 + Pemetrexed; first compound 0.001 µM) | relative viability (Wnt-C59 + Pemetrexed; first compound 0.01 µM) | relative viability (Wnt-C59 + Pemetrexed; first compound 0.03162 µM) | relative viability (Wnt-C59 + Pemetrexed; first compound 0.1 µM) |
| --- | --- | --- | --- | --- | --- | --- | --- | --- | --- | --- | --- | --- | --- | --- | --- | --- |
| LCLC-97TM1 | 0.262 | 0.266 | 0.227 | 0.238 | 0.268 | 0.256 | 0.19 | 0.2 | 0.216 | 0.201 | 0.22 | 0.193 | 0.169 | 0.181 | 0.18 | 0.183 |
| LCLC-103H | 0.729 | 0.758 | 0.785 | 0.698 | 0.951 | 0.969 | 1.04 | 1.16 | 0.716 | 0.667 | 0.667 | 0.713 | 0.452 | 0.467 | 0.482 | 0.505 |
| LK-2 | 0.319 | 0.329 | 0.319 | 0.323 | 1.29 | 1.06 | 1.03 | 0.68 | 0.767 | 0.869 | 0.713 | 0.817 | 0.332 | 0.295 | 0.323 | 0.331 |
| LOU-NH91 | 0.873 | 0.838 | 0.83 | 0.822 | 0.744 | 0.597 | 0.683 | 0.79 | 0.817 | 0.788 | 0.802 | 0.792 | 0.386 | 0.384 | 0.345 | 0.38 |
| LU99A | 0.943 | 0.937 | 0.897 | 0.878 | 0.496 | 0.566 | 0.604 | 0.538 | 0.583 | 0.474 | 0.569 | 0.506 | 0.205 | 0.195 | 0.178 | 0.195 |
| LXF-289 | 0.396 | 0.369 | 0.446 | 0.386 | 1.05 | 1.03 | 1.04 | 1.02 | 0.617 | 0.629 | 0.73 | 0.632 | 0.897 | 0.827 | 0.916 | 0.91 |
| NCI-H23 | 0.292 | 0.29 | 0.35 | 0.325 | 0.68 | 0.663 | 0.822 | 0.584 | 0.396 | 0.346 | 0.385 | 0.432 | 0.589 | 0.595 | 0.59 | 0.703 |
| NCI-H322M | 0.729 | 0.655 | 0.666 | 0.63 | 0.747 | 0.715 | 0.718 | 0.478 | 0.581 | 0.484 | 0.412 | 0.504 | 0.649 | 0.589 | 0.579 | 0.569 |
| NCI-H358 | 0.223 | 0.207 | 0.295 | 0.213 | 0.917 | 0.825 | 0.901 | 0.905 | 0.129 | 0.119 | 0.143 | 0.1 | 0.167 | 0.176 | 0.207 | 0.172 |
| NCI-H441 | 0.232 | 0.226 | 0.246 | 0.166 | 0.797 | 0.687 | 0.809 | 0.583 | 0.474 | 0.451 | 0.465 | 0.434 | 0.277 | 0.225 | 0.258 | 0.276 |
| NCI-H460 | 0.503 | 0.488 | 0.594 | 0.465 | 0.45 | 0.46 | 0.472 | 0.413 | 0.0894 | 0.111 | 0.191 | 0.156 | 0.0664 | 0.0664 | 0.0652 | 0.0706 |
| NCI-H520 | 0.48 | 0.532 | 0.537 | 0.504 | 0.932 | 0.969 | 1.06 | 0.785 | 0.709 | 0.743 | 0.598 | 0.643 | 0.655 | 0.626 | 0.787 | 0.682 |
| NCI-H522 | 0.707 | 0.739 | 0.782 | 0.666 |  |  |  |  | 0.786 | 0.741 | 0.829 | 0.752 | 1.18 | 1.03 | 1.17 | 0.855 |
| NCI-H596 | 0.996 | 0.918 | 1.07 | 1.42 | 0.528 | 0.396 | 0.615 | 0.475 | 0.734 | 0.704 | 0.879 | 0.876 | 0.533 | 0.569 | 0.483 | 0.479 |
| NCI-H727 | 0.91 | 0.902 | 0.901 | 0.997 | 0.584 | 0.546 | 0.741 | 0.421 | 0.399 | 0.369 | 0.355 | 0.406 |  |  |  |  |
| NCI-H1299 |  |  |  |  | 1.05 | 1.08 | 1.05 | 1.04 |  |  |  |  |  |  |  |  |
| NCI-H1563 |  |  |  |  | 0.925 | 0.852 | 1.07 | 0.888 |  |  |  |  | 0.736 | 0.751 | 0.723 | 0.705 |
| NCI-H1648 | 0.581 | 0.405 | 0.496 | 0.561 |  |  |  |  | 0.564 | 0.45 | 0.63 | 0.491 | 0.615 | 0.922 | 0.81 | 0.66 |
| NCI-H1650 | 0.494 | 0.482 | 0.407 | 0.408 |  |  |  |  | 0.642 | 0.716 | 0.684 | 0.774 | 0.354 | 0.442 | 0.38 | 0.422 |
| NCI-H1703 |  |  |  |  | 0.33 | 0.328 | 0.352 | 0.283 |  |  |  |  |  |  |  |  |
| NCI-H2228 |  |  |  |  | 0.816 | 0.74 | 0.929 | 0.751 | 0.549 | 0.574 | 0.477 | 0.499 | 0.306 | 0.334 | 0.337 | 0.328 |
| NCI-H2342 | 0.713 | 0.787 | 0.748 | 0.692 |  |  |  |  | 0.786 | 0.757 | 0.91 | 0.797 | 0.758 | 0.773 | 0.892 | 0.777 |
| SW 900 | 0.49 | 0.43 | 0.492 | 0.402 |  |  |  |  | 0.809 | 0.745 | 0.793 | 0.6 | 0.505 | 0.469 | 0.483 | 0.478 |
